Measured values published in patent publication US8911717B2, “Polymalic acid-based multifunctional drug delivery system” (Cedars-Sinai Medical Center, priority 2003, dated 2014).

Tests used:
[1] = test system: protein kinase CK2 α chain; test: Western blot of CK2 expression in cell lysates; assay type: cell-based, human; details: U251MG glioma cells treated for 3 days; compared to untreated control or EPEI-treated control
Procedure: The protein kinase CK2 complex is a tetramer comprised of catalytic α, α′ subunits and regulatory […] subunits that form complexes such as α2β2, αα′β2 and α′2β2. To achieve downregulation of CK2, the antisense oligonucleotides against the CK2 catalytic subunit a were conjugated to PMLA. Morpholino™-NH2 antisense oligonucleotides to the protein kinase CK2 catalytical domain a chain purchased from Gene Tools (USA) were as follows:
Inhibition of CK2 expression in vitro was assessed in the cell lysates of cultured glioma cell line U251MG treated for 3 days with nanoconjugates containing Morpholino antisense oligonucleotides CK2a-1, CK2a-2 or CK2a-3.

fresh human RBCs = test: red blood cell (RBC) hemolysis assay (membrane disruptive activity); assay type: cell-based; details: pH 5.85 or pH 5.5; 2.5 nmol/10^8 RBCs; 1 h at 37° C.; absorbance of supernatant at 541 nm
Procedure: The fresh human RBCs were isolated by centrifugation of whole human blood at 2000 g for 5 min. The RBCs were washed three times with cold 100 mM sodium phosphate buffer of the desired pH (pH 5.85 or pH 5.5). The final pellet was resuspended in the same buffer to give a solution with […] RBCs per 1 ml. The polymers were dissolved in 100 mM dibasic sodium phosphate buffer at the desired pH at a concentration of 10 mg/ml. The polymer concentration was 2.5 nmol/10^8 RBCs. Hemolysis in distilled water was used to produce 100% lysis. RBCs in buffer with no polymer was used as reference controls. The hemolysis assay was performed by adding the polymer solution to the suspended RBCs in 1 ml of the appropriate buffer. The RBCs were mixed by inverting the tube several times, and incubated for 1 h in a 37° C. water bath. After incubation, the RBCs were centrifuged for […] at 13,500×g to sediment intact cells and the lysis was determined by measuring the absorbance of the supernatants at 541 nm which reflects the amount of hemoglobin released by the RBCs. The relative increase 100(A-Ao)/Atotal in absorbance at 541 nm wavelength of the cell-free supernatant was measured as an indicator of membrane rupture. […]

Substance | CK2 α chain expression, Western blot [1] | membrane disruptive activity (effect on RBC membranes) (fresh human RBCs)
CK2a-1: PMLA nanoconjugate containing Morpholino antisense oligonucleotide CK2a-1, SEQ ID NO: 3, GATCTGGCAGTCACTGTGTTCAGAA (all phosphorodiamidate morpholino (PMO); amine-modified morpholino conjugated to polymalic acid nanoconjugate carrier, further chemistry not fully specified) | reduction | 
CK2a-2: PMLA nanoconjugate containing Morpholino antisense oligonucleotide CK2a-2, SEQ ID NO: 4, CCTGCTTGGCACGGGTCCCGACAT (all phosphorodiamidate morpholino (PMO); amine-modified morpholino conjugated to polymalic acid nanoconjugate carrier, further chemistry not fully specified) | reduction | 
CK2a-3: PMLA nanoconjugate containing Morpholino antisense oligonucleotide CK2a-3, SEQ ID NO: 5, CGGACAAAGCTGGACTTGATGTTT (all phosphorodiamidate morpholino (PMO); amine-modified morpholino conjugated to polymalic acid nanoconjugate carrier, further chemistry not fully specified) | reduction | 
PMLA/L-valine/2-mercaptoethylamine/mPEG-NH2 conjugate [PMLA-PEG-Valine] |  | infer membrane destabilization
PMLA/mAB OX-26/morpholino antisense oligonucleotide/L-valine/2-mercaptoethylamine/mPEG-NH2 conjugate [PMLA-PEG-Valine-AS-mAB] |  | infer membrane destabilization
